The source of these data is patent publication US20260285875A1, “INHIBITORS OF PARG” (858 Therapeutics, Inc., priority 2023, published 2026).

As usually defined, the pIC50 is the negative decadic logarithm of the IC50, by convention in mol/L.

pIC50: −log10 of the molar value. Where only a bound is given, the exact number is not on record here.

The assay has as its target T1, cellular PARG (Homo sapiens, UniProt Q86W56).
T1 construct: endogenous in cells; host or cells: HeLa
As to the kind of experiment: Nuclear PAR accumulation assay (immunofluorescence high-content imaging, MMS-treated HeLa cells). It counts as cell-based. The conditions noted are these: 1 hour compound then MMS 50 μg/mL for an additional hour. In outline: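 HeLa cells pretreated with compound for 1 h at 37° C, then given 50 μg/mL MMS for another hour. After methanol fixation, PAR was immunostained with DAPI nuclear counterstain; per-nucleus intensity and percent PAR-positive cells were imaged at 20× (≥1,000 cells/well). IC50 from four-parameter logistic fit.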

T1 sequence (Q86W56 whole entry): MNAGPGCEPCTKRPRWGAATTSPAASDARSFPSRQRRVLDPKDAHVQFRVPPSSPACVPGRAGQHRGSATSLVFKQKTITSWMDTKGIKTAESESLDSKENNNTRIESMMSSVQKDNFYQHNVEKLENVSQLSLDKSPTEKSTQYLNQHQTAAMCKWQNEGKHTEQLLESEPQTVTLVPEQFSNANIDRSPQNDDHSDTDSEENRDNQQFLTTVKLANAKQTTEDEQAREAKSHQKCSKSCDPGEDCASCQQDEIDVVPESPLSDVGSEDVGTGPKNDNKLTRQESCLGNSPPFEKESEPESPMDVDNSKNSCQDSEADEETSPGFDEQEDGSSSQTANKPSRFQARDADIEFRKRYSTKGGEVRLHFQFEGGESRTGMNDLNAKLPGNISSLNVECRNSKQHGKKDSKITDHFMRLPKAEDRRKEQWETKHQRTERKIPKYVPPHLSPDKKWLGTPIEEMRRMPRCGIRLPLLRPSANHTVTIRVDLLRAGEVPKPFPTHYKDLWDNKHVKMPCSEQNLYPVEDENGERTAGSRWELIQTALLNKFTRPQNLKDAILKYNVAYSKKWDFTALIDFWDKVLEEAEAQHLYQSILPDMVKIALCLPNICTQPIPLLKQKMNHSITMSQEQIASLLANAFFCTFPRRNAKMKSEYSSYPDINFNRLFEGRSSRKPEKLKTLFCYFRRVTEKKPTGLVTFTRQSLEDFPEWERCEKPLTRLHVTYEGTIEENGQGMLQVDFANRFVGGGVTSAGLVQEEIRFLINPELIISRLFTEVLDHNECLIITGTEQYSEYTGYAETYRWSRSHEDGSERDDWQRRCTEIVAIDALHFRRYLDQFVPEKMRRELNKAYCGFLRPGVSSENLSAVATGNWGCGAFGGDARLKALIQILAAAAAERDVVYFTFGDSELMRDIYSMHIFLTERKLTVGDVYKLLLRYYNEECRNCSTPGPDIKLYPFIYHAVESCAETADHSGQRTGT

Regarding `[2H]C([2H])(c1cnn(C)c1)N1C(=O)c2cc(S(=O)(=O)NC3(C)CC3)c(F)cc2N2C1=N[C@H]1CCC[C@H]12` [Example 212, (7aS,10aR)-2-fluoro-6-((1-methyl-1H-pyrazol-4-yl)methyl-d2)-N-(1-methylcyclopropyl)-5-oxo-6,7a,8,9,10,10a-hexahydro-5H-cyclopenta[4,5]imidazo[1,2-a]quinazoline-3-sulfonamide], the pIC50 is greater than 7.00.

In turn, `[2H]C([2H])(c1cnn(C)c1)N1C(=O)c2cc(S(=O)(=O)NC3(C)CC3)c(OC)cc2N2C1=N[C@H]1CCC[C@H]12` [Example 213, (7aS,10aR)-2-methoxy-6-((1-methyl-1H-pyrazol-4-yl)methyl-d2)-N-(1-methylcyclopropyl)-5-oxo-6,7a,8,9,10,1Oa-hexahydro-5H-cyclopenta[4,5]imidazo[1,2-a]quinazoline-3-sulfonamide] gave a pIC50 of 6.00 to 7.00.

In turn, `[2H]C([2H])(c1cnn(C)c1)N1C(=O)c2cc(S(=O)(=O)NC3(C)CC3)c(N(C)C)cc2N2C1=N[C@H]1CCC[C@H]12` [Example 214, (7aS,10aR)-2-(dimethylamino)-6-((1-methyl-1H-pyrazol-4-yl)methyl-d2)-N-(1-methylcyclopropyl)-5-oxo-6,7a,8,9,10,10a-hexahydro-5H-cyclopenta[4,5]imidazo[1,2-a]quinazoline-3-sulfonamide] showed a negative logarithm of the IC50 (pIC50) of 5.00 to 6.00.

Molecule `CN1C(=O)c2cc(S(=O)(=O)NC3(C)CC3)c(F)cc2N2C1=NCC2C#Cc1cnc2cccnn12` (stereo not drawn) [Example 215, 8-fluoro-1-(imidazo[1,2-b]pyridazin-3-ylethynyl)-4-methyl-N-(1-methylcyclopropyl)-5-oxo-1,2,4,5-tetrahydroimidazo[1,2-a]quinazoline-7-sulfonamide] showed a pIC50 greater than 7.00.

`Cc1cc(C#C[C@@H]2CN=C3N(C)C(=O)c4cc(S(=O)(=O)NC5(C)CC5)ccc4N32)ccn1` [Example 216, (R)-4-methyl-N-(1-methylcyclopropyl)-1-((2-methylpyridin-4-yl)ethynyl)-5-oxo-1,2,4,5-tetrahydroimidazo[1,2-a]quinazoline-7-sulfonamide] showed a pIC50 greater than 7.00.

Regarding `Cn1cc(CN2C(=O)c3cc(S(=O)(=O)NC4(C)CC4)ccc3N3C2=NC[C@H]3C#Cc2c(F)cnn2C)cn1` [Example 217, (R)-1-((4-fluoro-1-methyl-1H-pyrazol-5-yl)ethynyl)-4-((1-methyl-1H-pyrazol-4-yl)methyl)-N-(1-methylcyclopropyl)-5-oxo-1,2,4,5-tetrahydroimidazo[1,2-a]quinazoline-7-sulfonamide], the negative logarithm of the IC50 (pIC50) is greater than 7.00.

`Cc1nn(C)cc1C#C[C@@H]1CN=C2N(Cc3cnn(C)c3)C(=O)c3cc(S(=O)(=O)NC4(C)CC4)ccc3N21` [Example 218, (R)-1-((1,3-dimethyl-1H-pyrazol-4-yl)ethynyl)-4-((1-methyl-1H-pyrazol-4-yl)methyl)-N-(1-methylcyclopropyl)-5-oxo-1,2,4,5-tetrahydroimidazo[1,2-a]quinazoline-7-sulfonamide] had a pIC50 greater than 7.00.

`C[C@@H]1CON=C2N(Cc3cnn(C)c3)C(=O)c3cc(S(=O)(=O)NC4(C)CC4)ccc3N21` [Example 219, (R)-1-methyl-5-((1-methyl-1H-pyrazol-4-yl)methyl)-N-(1-methylcyclopropyl)-6-oxo-1,2,5,6-tetrahydro-[1,2,4]oxadiazino[4,3-a]quinazoline-8-sulfonamide] had a pIC50 greater than 7.00.

In turn, `C[C@H]1CON=C2N(Cc3cnn(C)c3)C(=O)c3cc(S(=O)(=O)NC4(C)CC4)ccc3N21` [Example 220, (S)-1-methyl-5-((1-methyl-1H-pyrazol-4-yl)methyl)-N-(1-methylcyclopropyl)-6-oxo-1,2,5,6-tetrahydro-[1,2,4]oxadiazino[4,3-a]quinazoline-8-sulfonamide] gave a pIC50 of 6.00 to 7.00.
